Columns and labels:
Conditions in all cases: main component drawn
S. pneumoniae D39V [1] = assay: fitness (endpoint OD595 vs no drug) (fraction); higher = more growth
Summary of the method: (§1)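 Fitness compares growth at the stationary-phase transition with the robust mean of no-drug control wells, as a ratio of optical densities. The ratio is capped at 1. Wells of 384-well plates held 30 µl, or 55 µl for S. pneumoniae, inoculated at OD595 0.01. Readings at OD595 every 30 min for 14 h at 37 °C were corrected against the first reading.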

B. subtilis 168 [2] = assay: as above
Summary of the method: as §1

S. aureus DSM 20231 = assay: Bliss interaction score (quartile over a dose matrix) (fitness difference); higher = more antagonism (negative = synergy)
Summary of the method: (§2)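 Quartiles of the Bliss score were taken over technical, biological and donor/recipient replicates. That score is observed fitness minus the product of the single-drug fitness values, which were inferred from combination data. Fitness itself is OD595 at entry into stationary phase divided by the plate's robust no-drug mean, with a cap at 1.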

S. pneumoniae D39V [3] = assay: as above
Summary of the method: as §2

S. aureus Newman = assay: as above
Summary of the method: as §2

B. subtilis 168 [4] = assay: as above
Summary of the method: as §2
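Throughout, for Bliss interaction score (quartile over a dose matrix): first quartile when negative (synergy) and third quartile when positive (antagonism).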

CNC(C)C1CCC(N)C(OC2C(N)CC(N)C(OC3OCC(C)(O)C(NC)C3O)C2O)O1 (centres undefined) [Gentamicin] + CN(C)C(=O)C(CCN1CCC(O)(c2ccc(Cl)cc2)CC1)(c1ccccc1)c1ccccc1 [Loperamide]
Conditions	fitness
B. subtilis 168 [2], first compound 0.0625 µg/mL, partner 100 µg/mL	0.0528
B. subtilis 168 [2], first compound 0.125 µg/mL, partner 25 µg/mL	0.0373
B. subtilis 168 [2], first compound 0.125 µg/mL, partner 50 µg/mL	0.0589
B. subtilis 168 [2], first compound 0.125 µg/mL, partner 100 µg/mL	0.0432
B. subtilis 168 [2], first compound 0.25 µg/mL, partner 25 µg/mL	0.0438
B. subtilis 168 [2], first compound 0.25 µg/mL, partner 50 µg/mL	0.0483
B. subtilis 168 [2], first compound 0.25 µg/mL, partner 100 µg/mL	0.0409
S. pneumoniae D39V [1], first compound 2 µg/mL, partner 17.14 µg/mL	0.968
S. pneumoniae D39V [1], first compound 2 µg/mL, partner 20 µg/mL	≥ 1
S. pneumoniae D39V [1], first compound 2 µg/mL, partner 34.28 µg/mL	0.967
S. pneumoniae D39V [1], first compound 2 µg/mL, partner 40 µg/mL	0.994
S. pneumoniae D39V [1], first compound 2 µg/mL, partner 80 µg/mL	0.193
S. pneumoniae D39V [1], first compound 4 µg/mL, partner 17.14 µg/mL	≥ 1
S. pneumoniae D39V [1], first compound 4 µg/mL, partner 20 µg/mL	≥ 1
S. pneumoniae D39V [1], first compound 4 µg/mL, partner 34.28 µg/mL	0.98
S. pneumoniae D39V [1], first compound 4 µg/mL, partner 40 µg/mL	≥ 1
S. pneumoniae D39V [1], first compound 8 µg/mL, partner 17.14 µg/mL	0.984
S. pneumoniae D39V [1], first compound 8 µg/mL, partner 20 µg/mL	≥ 1
S. pneumoniae D39V [1], first compound 8 µg/mL, partner 34.28 µg/mL	0.916
S. pneumoniae D39V [1], first compound 8 µg/mL, partner 40 µg/mL	≥ 1

S. pneumoniae D39V [1], partner 68.57 µg/mL, one replicate
Conditions	fitness
first compound 2 µg/mL	≥ 1
first compound 4 µg/mL	0.924
first compound 8 µg/mL	0.937

Conditions	Bliss interaction score
B. subtilis 168 [4]	-0.159
S. aureus DSM 20231	0.0997
S. aureus Newman	0.0802
S. pneumoniae D39V [3]	0.0792

CNC(C)C1CCC(N)C(OC2C(N)CC(N)C(OC3OCC(C)(O)C(NC)C3O)C2O)O1 (centres undefined) [Gentamicin] + CO[C@@H]1[C@@H](OC(N)=O)[C@@H](O)[C@H](Oc2ccc3c(O)c(NC(=O)c4ccc(O)c(CC=C(C)C)c4)c(=O)oc3c2C)OC1(C)C [Novobiocin]
fitness, B. subtilis 168 [2]
Conditions	first compound 0.0625 µg/mL	first compound 0.125 µg/mL	first compound 0.25 µg/mL
partner 0.0125 µg/mL	0.915	–	0.0845
partner 0.025 µg/mL	0.938	0.692	0.0329
partner 0.05 µg/mL	0.998	0.705	–

fitness, B. subtilis 168 [2], one replicate
Conditions	partner 0.1 µg/mL	partner 0.125 µg/mL	partner 0.2 µg/mL	partner 0.25 µg/mL	partner 0.5 µg/mL
first compound 0.0625 µg/mL	≥ 1	0.907	≥ 1	0.987	0.515
first compound 0.125 µg/mL	0.946	0.501	0.978	0.302	0.111
first compound 0.25 µg/mL	0.152	0.056	0.476	0.0399	0.0406

Conditions	Bliss interaction score
B. subtilis 168 [4]	0.137
S. aureus DSM 20231	-0.0708
S. aureus Newman	0.0684
S. pneumoniae D39V [3]	0.0522

CNC(C)C1CCC(N)C(OC2C(N)CC(N)C(OC3OCC(C)(O)C(NC)C3O)C2O)O1 (centres undefined) [Gentamicin] + COc1cc(Cc2cnc(N)nc2N)cc(OC)c1OC [Trimethoprim]
fitness, B. subtilis 168 [2], one replicate
Conditions	partner 0.1 µg/mL	partner 0.2 µg/mL	partner 0.4 µg/mL	partner 1 µg/mL	partner 2 µg/mL
first compound 0.0625 µg/mL	0.953	0.787	0.539	0.0449	0.0512
first compound 0.125 µg/mL	0.716	0.294	0.0552	0.0304	0.0461
first compound 0.25 µg/mL	0.0356	0.0576	0.0438	0.0435	0.0503

fitness, B. subtilis 168 [2]
Conditions	first compound 0.0625 µg/mL	first compound 0.125 µg/mL	first compound 0.25 µg/mL
partner 0.125 µg/mL	0.661	0.548	0.0923
partner 0.25 µg/mL	0.53	–	0.0847
partner 0.5 µg/mL	–	–	0.041

Conditions	Bliss interaction score
B. subtilis 168 [4]	-0.201
S. aureus DSM 20231	-0.0371
S. aureus Newman	0.0637
S. pneumoniae D39V [3]	-0.193

CNC(C)C1CCC(N)C(OC2C(N)CC(N)C(OC3OCC(C)(O)C(NC)C3O)C2O)O1 (centres undefined) [Gentamicin] + C[C@H]1COc2c(N3CCN(C)CC3)c(F)cc3c(=O)c(C(=O)O)cn1c23 [Levofloxacin]
Conditions	fitness
B. subtilis 168 [2], first compound 0.0625 µg/mL, partner 0.002 µg/mL	0.89
B. subtilis 168 [2], first compound 0.0625 µg/mL, partner 0.0039 µg/mL	0.89
B. subtilis 168 [2], first compound 0.0625 µg/mL, partner 0.0312 µg/mL	0.0381
B. subtilis 168 [2], first compound 0.0625 µg/mL, partner 0.0625 µg/mL	0.0442
B. subtilis 168 [2], first compound 0.0625 µg/mL, partner 0.125 µg/mL	0.0374
B. subtilis 168 [2], first compound 0.125 µg/mL, partner 0.0312 µg/mL	0.0387
B. subtilis 168 [2], first compound 0.125 µg/mL, partner 0.0625 µg/mL	0.046
B. subtilis 168 [2], first compound 0.125 µg/mL, partner 0.125 µg/mL	0.0388
B. subtilis 168 [2], first compound 0.25 µg/mL, partner 0.002 µg/mL	0.206
B. subtilis 168 [2], first compound 0.25 µg/mL, partner 0.0039 µg/mL	0.163
B. subtilis 168 [2], first compound 0.25 µg/mL, partner 0.0312 µg/mL	0.0407
B. subtilis 168 [2], first compound 0.25 µg/mL, partner 0.0625 µg/mL	0.0447
B. subtilis 168 [2], first compound 0.25 µg/mL, partner 0.125 µg/mL	0.0485
S. pneumoniae D39V [1], first compound 2 µg/mL, partner 0.1725 µg/mL	0.98
S. pneumoniae D39V [1], first compound 2 µg/mL, partner 0.2 µg/mL	0.901
S. pneumoniae D39V [1], first compound 2 µg/mL, partner 0.345 µg/mL	0.914
S. pneumoniae D39V [1], first compound 2 µg/mL, partner 0.4 µg/mL	0.75
S. pneumoniae D39V [1], first compound 2 µg/mL, partner 0.69 µg/mL	0.636
S. pneumoniae D39V [1], first compound 2 µg/mL, partner 0.8 µg/mL	0.213
S. pneumoniae D39V [1], first compound 4 µg/mL, partner 0.1725 µg/mL	0.972
S. pneumoniae D39V [1], first compound 4 µg/mL, partner 0.2 µg/mL	0.874
S. pneumoniae D39V [1], first compound 4 µg/mL, partner 0.345 µg/mL	0.902
S. pneumoniae D39V [1], first compound 4 µg/mL, partner 0.4 µg/mL	0.723
S. pneumoniae D39V [1], first compound 4 µg/mL, partner 0.69 µg/mL	0.625
S. pneumoniae D39V [1], first compound 4 µg/mL, partner 0.8 µg/mL	0.21
S. pneumoniae D39V [1], first compound 8 µg/mL, partner 0.1725 µg/mL	0.98
S. pneumoniae D39V [1], first compound 8 µg/mL, partner 0.2 µg/mL	0.865
S. pneumoniae D39V [1], first compound 8 µg/mL, partner 0.345 µg/mL	0.912
S. pneumoniae D39V [1], first compound 8 µg/mL, partner 0.4 µg/mL	0.671
S. pneumoniae D39V [1], first compound 8 µg/mL, partner 0.69 µg/mL	0.438
S. pneumoniae D39V [1], first compound 8 µg/mL, partner 0.8 µg/mL	0.179

fitness, B. subtilis 168 [2], one replicate
Conditions	first compound 0.0625 µg/mL	first compound 0.125 µg/mL	first compound 0.25 µg/mL
partner 0.001 µg/mL	0.868	0.126	0.0524
partner 0.0078 µg/mL	0.98	0.977	0.259

Conditions	Bliss interaction score
B. subtilis 168 [4]	-0.0837
S. aureus DSM 20231	0.0527
S. aureus Newman	0.0894
S. pneumoniae D39V [3]	-0.123

From the supplement of paper PMC10627819
